Results from patent publication US8415358B2, “Pyrazine derivatives and their use as potassium channel modulators” (Neurosearch A/S, priority 2007, dated 2013).

Biological target: T1, hSK3 channels (Homo sapiens, UniProt Q9UGI6)
T1 construct: expressed in transfected cells; host or cells: HEK293
Test: Whole-cell patch-clamp recording of ionic current through SK channels (subtype 3) in HEK293 cells expressing hSK3
Assay type: cell-based
Conditions: Stimulating Concentration required for increasing the baseline current by 100%, current at -75 mV, free Ca2+ 0.3-0.4 μM, room temperature
Procedure: The ionic current through small-conductance Ca^2+-activated K^+ channels (SK channels, subtype 3) is recorded using the whole-cell configuration of the patch-clamp technique.
HEK293 tissue culture cells expressing hSK3 channels were grown in DMEM (Dulbecco's Modified Eagle Medium) supplemented with 10% FCS (foetal calf serum) at 37° C. in 5% CO2. At 60-80% confluency, cells were harvested by trypsin treatment and seeded on cover slips.
Experiments are carried out on one of several patch-clamp set-ups. Cells plated on coverslips are placed in a 15 μl perfusion chamber (flowrate ˜1 ml/min) mounted on an IMT-2 microscope. The microscopes are placed on vibration-free tables in grounded Faraday cages. All experiments are performed at room temperature (20-22° C.). EPC-9 patch-clamp amplifiers (HEKA-electronics, Lambrect, Germany) are connected to Macintosh computers via ITC16 interfaces. Data are stored directly on the hard-disk and analysed by IGOR software (Wavemetrics, Lake Oswega, Oreg., USA).
The whole-cell configuration of the patch-clamp technique is applied. In short: The tip of a borosilicate pipette (resistance 2-4 MΩ) is gently placed on the cell membrane using remote control systems. Light suction results in the formation of a giga seal (pipette resistance increases to more than 1 GΩ) and the cell membrane underneath the pipette is then ruptured by more powerful suction. Cell capacitance is electronically compensated and the resistance between the pipette and the cell interior (the series resistance, Rs) is measured and compensated for. […]
The intracellular (pipette) solution contained: 154 mM KCl, 10 mM HEPES, 10 mM EGTA. Concentrations of CaCl2 and MgCl2 needed to obtain the desired free concentrations of Ca^2+ (0.3-0.4 μM, Mg^2+ always 1 mM) were calculated by EqCal software (Cambridge, UK) and added.
After establishment of the whole-cell configuration, voltage-ramps (normally −80 to +80 mV) are applied to the cell every 5 seconds from a holding potential of 0 mV. […] Active compounds are quantified by calculating the change in baseline current at −75 mV. […]

Compound | SC100
Clc1ccc(Nc2cncc(-c3nccs3)n2)cc1 [Compound 8.4, (4-Chloro-phenyl)-(6-thiazol-2-yl-pyrazin-2-yl)-amine] | 0.30 µM
Cc1cc(C)n(-c2cncc(Nc3ccc(Cl)cc3)n2)n1 [Compound 4, (4-Chloro-phenyl)-[6-(3,5-dimethyl-pyrazol-1-yl)-pyrazin-2-yl]-amine] | 0.25 µM
Cc1cc(C)n(-c2cnc(/C=N/O)c(Nc3ccc(Cl)cc3)n2)n1 [Compound 20.1, 3-(4-Chloro-phenylamino)-5-(3,5-dimethyl-pyrazol-1-yl) -pyrazine-2-carbaldehyde oxime] | 0.075 µM

Test system: not given
Test: not given
Conditions: not given

Compound | melting point
CCNc1ncc(Nc2ccc(Cl)cc2)nc1-n1nc(C)cc1C [Compound 27.2, 5-(4-Chloro-phenylamino)-3-(3,5-dimethyl-pyrazol-1-yl)-2-ethylamino-pyrazine] | 122 to 124 °C
Cc1cc(C)n(-c2cncc(Nc3ccc(Cl)cc3)n2)n1 [Compound 4, (4-Chloro-phenyl)-[6-(3,5-dimethyl-pyrazol-1-yl)-pyrazin-2-yl]-amine] | 157 to 158.9 °C
Cc1cc(C)n(-c2cnc(CN(C)C)c(Nc3ccc(Cl)cc3)n2)n1 [Compound 14.1, (4-Chloro-phenyl)-[3-dimethylaminomethyl-6-(3,5-dimethyl-pyrazol-1-yl)-pyrazin-2-yl]-amine] | 112 to 114 °C
COCc1ncc(-n2nc(C)cc2C)nc1Nc1ccc(Cl)cc1 [Compound 16.1, (4-Chloro-phenyl)-[6-(3,5-dimethyl-pyrazol-1-yl)-3-methoxymethyl-pyrazin-2-yl]-amine] | 105 to 108 °C
CC(=O)NCc1ncc(-n2nc(C)cc2C)nc1Nc1ccc(Cl)cc1 [Compound 22.1, N-[3-(4-Chloro-phenylamino)-5-(3,5-dimethyl-pyrazol-1-yl)-pyrazin-2-ylmethyl]-acetamide] | 228 to 230 °C
Clc1ccc(Nc2cncc(-n3cc4ccccc4n3)n2)cc1 [Compound 3.1, (4-Chloro-phenyl)-(6-indazol-2-yl-pyrazin-2-yl)-amine] | 249 to 252 °C
Clc1ccc(Nc2cncc(-n3ncc4ccccc43)n2)cc1 [Compound 3.2, (4-Chloro-phenyl)-(6-indazol-1-yl-pyrazin-2-yl)-amine] | 204 to 207 °C
COCc1ncc(Nc2ccc(Cl)cc2)nc1-n1nc(C)cc1C [Compound 17.1] | 147 to 151 °C
Clc1ccc(Nc2cncc(-n3cccn3)n2)cc1 [Compound 3, (4-Chloro-phenyl)-(6-pyrazol-1-yl-pyrazin-2-yl)-amine] | 155 to 157 °C
Cc1cc(C)n(-c2cnc(CN)c(Nc3ccc(Cl)cc3)n2)n1 [Compound 21.1, [3-Aminomethyl-6-(3,5-dimethyl-pyrazol-1-yl)-pyrazin-2-yl]-(4-chloro-phenyl)-amine] | 156 to 160 °C
Cc1cc(C)n(-c2cnc(/C=N/O)c(Nc3ccc(Cl)cc3)n2)n1 [Compound 20.1, 3-(4-Chloro-phenylamino)-5-(3,5-dimethyl-pyrazol-1-yl) -pyrazine-2-carbaldehyde oxime] | 228 to 231 °C
Cc1cccc(-c2cncc(Nc3ccc(Cl)cc3)n2)n1 [Compound 8.1, (4-Chloro-phenyl)-[6-(6-methyl-pyridin-2-yl)-pyrazin-2-yl]-amine] | 186 to 188 °C
